Source: US5525626A (priority 1989, dated 1996)

Assays:
Test in all cases: 3H-thymidine assay
Assay type in all cases: cell-based
[1] = tested on: Tp 483 MG glioblastoma cells
Daudi leukemic cells = conditions: Homo sapiens
HCV cells = tested on: HCV cells
A-375 melanoma cells = conditions: Homo sapiens
CAKI-2 cells = conditions: Homo sapiens
Protocol: (§1) The cell lines were cultivated as indicated in Example 1.
(§2) The antiproliferative effect of the 1,2-benzopyrone derivatives according to the invention on the tumor cell lines in each case was shown with the help of the ^3 H-thymidine insertion and with reference to growth curves.
In a 24-well-plate, in each case 10^4 cells of the line to be investigated were inoculated per well. Approximately 48 hours later the cells were half-confluent; the medium was then changed and replaced by a medium containing the active substance in question (cf Table 3). […] Subsequently the cultures were washed twice with ice-cold PBS and the high-molecular-weight ^3 H-radioactivity was precipitated with 5% trichloroacetic acid for one hour at 4° C. After the washing of the cells in PBS the ^3 H-radioactivity was solubilized with 0.3M NaOH and measured in the counter. The growth-inhibition was determined by comparing the thymidine insertion of the cells treated with active substance with untreated cells.
(§3) The active substance concentration in each case was so chosen that ^3 H-thymidine insertion was 50% inhibited. The active substance concentrations used under this aspect for the active substances and cell lines in each case are given in table 4 below in μM/ml, […]

[2] = tested on: Tp 242 MG glioblastoma cells; conditions: Homo sapiens
[3] = tested on: GV-1 prostate carcinoma cells
[4] = tested on: MCF-7 breast cancer cells; conditions: Homo sapiens
Protocol: as §1, §2
(§4) In a 24-well-plate, in each case 10^4 cells of the line to be investigated were inoculated per well. Approximately 48 hours later the cells were half-confluent; the medium was then changed and replaced by a medium containing the active substance in question (cf Table 3). After a further 48 hours 0.25 μCi ^3 H-thymidine (Ammersham) was added to each well and the cells were incubated for a further 24 hours. Subsequently the cultures were washed twice with ice-cold PBS and the high-molecular-weight ^3 H-radioactivity was precipitated with 5% trichloroacetic acid for one hour at 4° C. After the washing of the cells in PBS the ^3 H-radioactivity was solubilized with 0.3M NaOH and measured in the counter. The growth-inhibition was determined by comparing the thymidine insertion of the cells treated with active substance with untreated cells.
as §3

K-562 leukemic cells = conditions: Homo sapiens
Protocol: as §1, §2, §4, §3

[5] = read-out: 3H-thymidine insertion (%) of control
[6] = read-out: active substance concentration at which 3H-thymidine insertion was 50% inhibited
[7] = read-out: 3H-thymidine tracer (%) of control
[8] = A-375, read-out: 3H-thymidine tracer (%) of control
[9] = CAKI-2, read-out: 3H-thymidine tracer (%) of control
[10] = MCF7, read-out: 3H-thymidine tracer (%) of control
[11] = K562, read-out: 3H-thymidine tracer (%) of control

O=c1ccc2cc(O[C@@H]3O[C@H](CO)[C@@H](O)[C@H](O)[C@H]3O)c(O)cc2o1 [Esculin, 6-beta-D-glucopyranosyloxy-7-hydroxy-1,2-benzopyrone]
activity at 1 µM [1, 5]: 99% | activity at 2 µM [1, 5]: 97% | activity at 4 µM [1, 5]: 89% | activity at 8 µM [1, 5]: 83% | activity at 16 µM [1, 5]: 74% | activity at 25 µM [1, 5]: 66% | activity at 50 µM [1, 5]: 54% | activity at 100 µM [1, 5]: 51% | activity at 250 µM [1, 5]: 48% | activity at 500 µM [1, 5]: 45% | IC50 [1, 6]: 100 µM | activity at 1 µM (Daudi leukemic cells; [7]): 100% | activity at 2 µM (Daudi leukemic cells; [7]): 98% | activity at 4 µM (Daudi leukemic cells; [7]): 93% | activity at 8 µM (Daudi leukemic cells; [7]): 87% | activity at 16 µM (Daudi leukemic cells; [7]): 80% | activity at 25 µM (Daudi leukemic cells; [7]): 71% | activity at 50 µM (Daudi leukemic cells; [7]): 69% | activity at 100 µM (Daudi leukemic cells; [7]): 52% | activity at 250 µM (Daudi leukemic cells; [7]): 48% | activity at 500 µM (Daudi leukemic cells; [7]): 44% | IC50 (Daudi leukemic cells; [6]): 100 µM | activity at 1 µM (HCV cells; [7]): 100% | activity at 2 µM (HCV cells; [7]): 98% | activity at 4 µM (HCV cells; [7]): 95% | activity at 8 µM (HCV cells; [7]): 89% | activity at 16 µM (HCV cells; [7]): 86% | activity at 25 µM (HCV cells; [7]): 83% | activity at 50 µM (HCV cells; [7]): 79% | activity at 250 µM (HCV cells; [7]): 76% | activity at 500 µM (HCV cells; [7]): 75% | IC50 (HCV cells; [6]): > 500 µM | activity at 1 µM (A-375 melanoma cells; [8]): 100% | activity at 2 µM (A-375 melanoma cells; [8]): 96% | activity at 4 µM (A-375 melanoma cells; [8]): 93% | activity at 8 µM (A-375 melanoma cells; [8]): 87% | activity at 16 µM (A-375 melanoma cells; [8]): 82% | activity at 25 µM (A-375 melanoma cells; [8]): 78% | activity at 50 µM (A-375 melanoma cells; [8]): 71% | activity at 100 µM (A-375 melanoma cells; [8]): 64% | activity at 250 µM (A-375 melanoma cells; [8]): 60% | activity at 500 µM (A-375 melanoma cells; [8]): 57% | IC50 (A-375 melanoma cells; A-375, read-out: active substance concentration at which 3H-thymidine insertion was 50% inhibited): > 500 µM | activity at 1 µM (CAKI-2 cells; [9]): 99% | activity at 2 µM (CAKI-2 cells; [9]): 96% | activity at 4 µM (CAKI-2 cells; [9]): 90% | activity at 8 µM (CAKI-2 cells; [9]): 84% | activity at 16 µM (CAKI-2 cells; [9]): 73% | activity at 25 µM (CAKI-2 cells; [9]): 72% | activity at 50 µM (CAKI-2 cells; [9]): 66% | activity at 100 µM (CAKI-2 cells; [9]): 50% | activity at 150 µM (CAKI-2 cells; [9]): 56% | activity at 500 µM (CAKI-2 cells; [9]): 52% | IC50 (CAKI-2 cells; CAKI-2, read-out: active substance concentration at which 3H-thymidine insertion was 50% inhibited): > 500 µM | activity at 1 µM [2, 5]: 100% | activity at 2 µM [2, 5]: 98% | activity at 4 µM [2, 5]: 95% | activity at 8 µM [2, 5]: 81% | activity at 16 µM [2, 5]: 73% | activity at 25 µM [2, 5]: 68% | activity at 50 µM [2, 5]: 65% | activity at 100 µM [2, 5]: 61% | activity at 250 µM [2, 5]: 53% | activity at 500 µM [2, 5]: 49% | IC50 [2, 6]: 500 µM | activity at 1 µM [3, 7]: 97% | activity at 2 µM [3, 7]: 95% | activity at 4 µM [3, 7]: 85% | activity at 8 µM [3, 7]: 84% | activity at 16 µM [3, 7]: 79% | activity at 25 µM [3, 7]: 76% | activity at 50 µM [3, 7]: 68% | activity at 100 µM [3, 7]: 60% | activity at 250 µM [3, 7]: 51% | activity at 500 µM [3, 7]: 43% | IC50 [3, 6]: 250 µM | activity at 1 µM [4, 10]: 99% | activity at 2 µM [4, 10]: 91% | activity at 4 µM [4, 10]: 88% | activity at 8 µM [4, 10]: 80% | activity at 16 µM [4, 10]: 71% | activity at 25 µM [4, 10]: 69% | activity at 50 µM [4, 10]: 62% | activity at 100 µM [4, 10]: 51% | activity at 250 µM [4, 10]: 49% | activity at 500 µM [4, 10]: 42% | IC50 ([4]; MCF7, read-out: active substance concentration at which 3H-thymidine insertion was 50% inhibited): > 100 µM | activity at 1 µM (K-562 leukemic cells; [11]): 100% | activity at 2 µM (K-562 leukemic cells; [11]): 100% | activity at 4 µM (K-562 leukemic cells; [11]): 96% | activity at 8 µM (K-562 leukemic cells; [11]): 88% | activity at 16 µM (K-562 leukemic cells; [11]): 81% | activity at 25 µM (K-562 leukemic cells; [11]): 72% | activity at 50 µM (K-562 leukemic cells; [11]): 70% | activity at 100 µM (K-562 leukemic cells; [11]): 58% | activity at 250 µM (K-562 leukemic cells; [11]): 51% | activity at 500 µM (K-562 leukemic cells; [11]): 40% | IC50 (K-562 leukemic cells; K562, read-out: active substance concentration at which 3H-thymidine insertion was 50% inhibited): 250 µM
